The text below walks through data of patent US20050124557A1, “Use of benzothiazepines having activity as inhibitors of ileal bile acid transport for reducing cholesterololemia” (priority 2002, published 2005).

Structures can show the parent of a compound that is named as a salt.

Experiment [1] deals with LDL receptor/ApoE deficient mice. As to the kind of experiment: Dose response study (experiment I): plasma lipids/lipoproteins after Compound (I) by gavage. It counts as in vivo. Particulars: for Chol (plasma total cholesterol), % Change compared to control group / LP-remnants + LDL/HDL, % Change compared to control group / TG (plasma triglycerides), % Change compared to control group / HDL, % Change compared to control group / LDL, % Change compared to control group / LP-remnants, % Change compared to control group: three days, gavage. As for the experimental part:
(§1) Compound (I) was dissolved in polyethanylglycol (PEG):ethanol:solutol:Water (4:1:0.5:8.5) vehicle and administered by gavage once a day in the afternoon.
(§2) Altogether 54 female LDL receptor/ApoE deficient mice were used (5 to 6 weeks old weighing 25 to 30 g at the start of the study; obtained from B&M/AS, Denmark). They were kept under standardized conditions with free access to water and chow. The light-cycle hours were between 6:00 a.m. and 6:00 p.m. In experiment I, the dose response study, the mice were treated with Compound (I) by gavage once a day in the afternoon the first three days and in the morning the last day. The control group on regular R^3-chow received the vehicle by gavage. […] The control group received R^3 chow and vehicle.
(§3) Mice were starved 3 hours before they were scarified at 10 a.m. Animals were anaesthetized with isofluran, bled by cardiac puncture, and thereafter killed by cervical dislocation. Blood was collected into EDTA containing tubes, plasma was separated by centrifugation and stored at −70° C.
(§4) Cholesterol in plasma and in FPLC on line measurement was performed with a commercial cholesterol kit from Roche Diagnostics, GmbH, Germany, Cholesterol, CHOD-PAP 1489437.
(§5) Triglycerides in plasma was measured by using a commercial reagent kit, from Roche Diagnostics, GmbH, Germany, Triglycerides/GB, 450032.
(§6) The cholesterol distribution profiles were measured by using a size exclusion high performance liquid chromatography system, SMART, with column Superose 6 PC 3.2/30, (Amersham Pharmacia Biotec, Uppsala, Sweden). The chromatographic system was linked to an air segmented continuous flow system for online post-derivatization analysis of total cholesterol by using enzymatic colorimetric reagents. The SMART-system was connected to a sample injector, (Gina 50, Gynkotek HPLC, Germering, GmbH). Elution buffer consisted of 0.01M Tris, 0.03 M NaCl, pH 7.40, flow rate […]. The on line flow system was equipped with a peristaltic pump, flow rate 0.7 ml/min, and an incubation coil for 8 minutes at 37° C. The absorbance was measured at […] with a UV/VIS detector, (Jasco UV-970, Jasco International Co, Ltd, Japan). Data were integrated with a Chromeleon chromatography data system (Gynkotek HPLC, Germering GmbH). The distribution of lipoproteins was continuously measured as total cholesterol by using enzymatic calorimetric reagent, reconstituted in water, double volume compared to manufacturer instructions. The commercial kits were from Roche Diagnostics, GmbH, Germany, Cholesterol, CHOD-PAP 1489437. The separation was performed within 60 minutes on a 10 μl sample. The integrated area of the fractions was expressed in molar concentration. The various peaks in the profiles are designated LP-remnants, LDL, and HDL for simplicity, even though it is clear that the separation is determined primarily by the size of the lipoproteins.
With the aim to determine the effect of the BAT inhibitor, Compound (I), on the level of plasma lipids in LDL receptor/ApoE deficient mice, groups of animals received vehicle or Compound (I) at increasing doses (0.62, 2.5, 10 and 40 μmol/kg/day) for 3.5 days. […] To analyze plasma lipoproteins in detail, plasma lipoprotein patterns were generated after separation of plasma by FPLC.

Experiment [2] shares this test system. As to the kind of experiment: Combination study (experiment II): plasma lipids/lipoproteins after Compound (I), atorvastatin calcium salt or both. Particulars: for HDL, % Change compared to control group / LDL, % Change compared to control group / LP-remnants, % Change compared to control group: FPLC. It counts as in vivo. The procedure:
as §1, §2, §3, §4, §5, §6

Setting [3] is: FPLC, dose not stated in the sentence (Table 1: 40 μmol/kg/day).
The mark [4] stands for this setting: FPLC analysis of plasma, 7 days.
Where [5] appears, read: one week, Compound (I) 10 μmol/kg/day by gavage, atorvastatin calcium salt 0.05% in chow.

With `CCCC[C@]1(CC)CS(=O)(=O)c2cc(O[C@@H]3O[C@H](C(=O)O)[C@@H](O)[C@H](O)[C@H]3O)ccc2[C@@H](c2ccccc2)N1` [Compound (I), (3R,5R)-3-butyl-3-ethyl-1,1-dioxido-5-phenyl-2,3,4,5-tetrahydro-1,4-benzothiazepin-8-yl β-D-glucopyranosiduronic acid], in experiment [1] (0.625 μmol/kg/day), the “Chol (plasma total cholesterol), % Change compared to control group” value (“Chol … % Change compared to control group” below) is listed as −9%; the “LP-remnants + LDL/HDL, % Change compared to control group” value (from here on “LP-remnants + LDL/HDL, % Change”) was −30%; the “TG (plasma triglycerides), % Change compared to control group” value (from here on “TG (plasma triglycerides), % Change”) was determined as 13%. Moreover, in experiment [1] (0.625 μmol/kg/day, FPLC), the “HDL, % Change compared to control group” value stood at 29%; the “LDL, % Change compared to control group” value turned out to be 8%; the “LP-remnants, % Change compared to control group” value (“LP-remnants, % Change” for short) is listed as −27%. Besides, in experiment [1] (10 μmol/kg/day), the “Chol … % Change compared to control group” value was −35%; the “LP-remnants + LDL/HDL, % Change” value is −55%; the “TG (plasma triglycerides), % Change” value amounted to 23%. Besides, in experiment [1] (10 μmol/kg/day, FPLC), the “HDL, % Change compared to control group” value amounted to 36%; the “LDL, % Change compared to control group” value was −20%; the “LP-remnants, % Change” value was −54%. In addition, in experiment [1] (40 μmol/kg/day), the “Chol … % Change compared to control group” value is reported as −40%; the “LP-remnants + LDL/HDL, % Change” value is on record as −62%; the “TG (plasma triglycerides), % Change” value is 8%. Further, in experiment [1] (40 μmol/kg/day, FPLC), the “HDL, % Change compared to control group” value stood at 45%; the “LDL, % Change compared to control group” value was −23%; the “LP-remnants, % Change” value is −63%. Besides, the “Plasma triglycerides (in words)” value in experiment [1] (0.62-40 μmol/kg/day, 3.5 days) was “not significantly altered”. Besides, the “HDL cholesterol (in words)” value in experiment [1] (FPLC) is “no reduction”. Moreover, in experiment [1] (setting [3]), the “reduction in plasma cholesterol in LDL fraction” value turned out to be 23% and the “reduction in plasma cholesterol in LP-remnants fraction” value turned out to be 63%. In addition, the “reduction of total plasma cholesterol” value in experiment [1] (highest dose (40 μmol/kg/day), 3.5 days) is given as 40%. Also, the “increase in HDL cholesterol” value in experiment [2] (7 days) turned out to be 22%. Moreover, the “effect on the plasma triglyceride level (in words)” value in experiment [2] (7 days, Compound (I) 10 μmol/kg/day alone) is listed as “no effect”. Also, in experiment [2] (7 days, atorvastatin calcium salt 0.05% in diet (approximately 80-100 mg/kg/day), Compound (I) 10 μmol/kg/day), the “reduction of total plasma cholesterol” value was determined as 40%. Besides, in experiment [2] (setting [4]), the “reduction of LDL cholesterol” value is given as 30% and the “reduction of LP-remnants cholesterol” value stood at 62%. In experiment [2] (setting [5]), the “Chol … % Change compared to control group” value was −42%; the “LP-remnants + LDL/HDL, % Change” value was −54%; the “TG (plasma triglycerides), % Change” value amounted to 7%; the “HDL, % Change compared to control group” value is reported as 22%. Moreover, in experiment [2] (setting [5]), the “LDL, % Change compared to control group” value is −29% and the “LP-remnants, % Change” value is on record as −62%.
In the case of `CC(C)c1c(C(=O)Nc2ccccc2)c(-c2ccccc2)c(-c2ccc(F)cc2)n1CC[C@@H](O)C[C@@H](O)CC(=O)O` [Atorvastatin calcium salt, reference compound], the “reduction of LDL cholesterol” value in experiment [2] (setting [4]) is recorded as 44%. Further, in experiment [2] (setting [5]), the “LP-remnants + LDL/HDL, % Change” value was 2%; the “HDL, % Change compared to control group” value is listed as −22%; the “LDL, % Change compared to control group” value is −43%; the “LP-remnants, % Change” value is reported as −2%.
